Our source for the EC50 and CC50 values is patent US20230355626A1, “INHIBITORS OF HUMAN IMMUNODEFICIENCY VIRUS REPLICATION” (VIIV HEALTHCARE UK (NO.5) LIMITED, priority 2020, published 2023).

Structures are written as SMILES.

The subject of one data set is recombinant NL4-3 virus. The experiment in a line: HIV cell culture assay (antiviral activity, luciferase readout in infected MT-2 cells). The class given is cell-based. The note with it: Human immunodeficiency virus 1, NL43, MT2. Here is the method: HIV cell culture assay—MT-2 cells, 293T cells and the proviral DNA clone of NL4-3 virus were obtained from the NIH AIDS Research and Reference Reagent Program. MT-2 cells were propagated in RPMI 1640 media supplemented with 10% heat inactivated fetal bovine serum (FBS), 100 μg/ml penicillin G and up to 100 units/mL streptomycin. The 293T cells were propagated in DMEM media supplemented with 10% heat inactivated FBS, 100 μg/mL penicillin G and 100 μg/mL streptomycin. A recombinant NL4-3 proviral clone, in which a section of the nef gene was replaced with the Renilla luciferase gene, was used to make the reference virus used in these studies. The recombinant virus was prepared through transfection of the recombinant NL4-3 proviral clone into 293T cells using Transit-293 Transfection Reagent from Mirus Bio LLC (Madison, WI). Supernatant was harvested after 2-3 days and the amount of virus present was titered in MT-2 cells using luciferase enzyme activity as a marker by measuring luciferase enzyme activity. Luciferase was quantitated using the EnduRen Live Cell Substrate from Promega (Madison, WI). Antiviral activities of compounds toward the recombinant virus were quantified by measuring luciferase activity in MT-2 cells infected for 4-5 days with the recombinant virus in the presence of serial dilutions of the compound.
The 50% effective concentration (EC50) was calculated by using the exponential form of the median effect equation where (Fa)=1/[1+(ED50/drug conc.)m] (Johnson VA, Byington RT. Infectivity Assay. In Techniques in HIV Research. ed. Aldovini A, Walker BD. 71-76. New York: Stockton Press.1990). Curve fitting and analysis were performed with ActivityBase XE Runner software version 9.1.0.4 using model 203 (ID Business Solutions, LTD, Guildford, UK).

A short description of data set [1]: Compound cytotoxicity, XTT-based colorimetric assay. The class given is cell-based. Particulars: human; uninfected MT2 cells, day 4, XTT assay. The procedure:
Compound cytotoxicity and the corresponding CC50 values were determined using the same protocol as described in the antiviral assay except that uninfected cells were used. Cytotoxicity was assessed on day 4 in uninfected MT2 cells by using an XTT (2,3-bis[2-Methoxy-4-nitro-5-sulfophenyl]-2H-tetrazolium-5-carboxyanilide inner salt)-based colorimetric assay (Sigma-Aldrich, St Louis, Mo).
A general note: Formazan colour is commonly taken as a measure of viable cells.

As to `Cn1nc(NS(C)(=O)=O)c2c(Cl)ccc(-n3c([C@H](Cc4cc(F)cc(F)c4)NC(=O)Cn4nc(C(F)F)c5c4C(F)(F)[C@@H]4C[C@H]54)nc4nc(OCC5CC5(F)F)ccc4c3=O)c21` (stereo partly drawn) [Example 33, N-((1S)-1-((3P)-3-(4-chloro-1-methyl-3-(methylsulfonamido)-1H-indazol-7-yl)-7-((2,2-difluorocyclopropyl)methoxy)-4-oxo-3,4-dihydropyrido[2,3-d]pyrimidin-2-yl)-2-(3,5-difluorophenyl)ethyl)-2-((3bS,4aR)-3-(difluoromethyl)-5,5-difluoro-3b,4,4a,5-tetrahydro-1H-cyclopropa[3,4]cyclopenta[1,2-c]pyrazol-1-yl)acetamide], the EC50 (in general, the concentration giving half of the maximal effect) with recombinant NL4-3 virus is 0.037 nM. The CC50 (in general, the concentration that lowers cell viability or growth by half) at 4 day in data set [1] was over 100 nM.

For `Cn1nc(NS(C)(=O)=O)c2c(Cl)ccc(-n3c([C@H](Cc4cc(F)cc(F)c4)NC(=O)Cn4nc(C(F)F)c5c4C(F)(F)[C@@H]4C[C@H]54)nc4nc(OCc5nc(C(F)(F)F)cs5)ccc4c3=O)c21` (atropisomer, axis not shown; (P)) [Example 23, N-((S)-1-((3P)-3-(4-chloro-1-methyl-3-(methylsulfonamido)-1H-indazol-7-yl)-4-oxo-7-((4-(trifluoromethyl)thiazol-2-yl)methoxy)-3,4-dihydropyrido[2,3-d]pyrimidin-2-yl)-2-(3,5-difluorophenyl)ethyl)-2-((3bS,4aR)-3-(difluoromethyl)-5,5-difluoro-3b,4,4a,5-tetrahydro-1H-cyclopropa[3,4]cyclopenta[1,2-c]pyrazol-1-yl)acetamide], the EC50 with recombinant NL4-3 virus is 0.1 nM. For the same compound, the 50% cytotoxic concentration (CC50) at 4 day in data set [1] was over 100 nM.

As to `Cn1nc(NS(C)(=O)=O)c2c(Cl)ccc(-n3c([C@H](Cc4cc(F)cc(F)c4)NC(=O)Cn4nc(C(F)F)c5c4C(F)(F)[C@@H]4C[C@H]54)nc4nc(OCCOC(F)F)ccc4c3=O)c21` (atropisomer, axis not shown; (P)) [Example 29, N-((S)-1-((3P)-3-(4-chloro-1-methyl-3-(methylsulfonamido)-1H-indazol-7-yl)-7-(2-(difluoromethoxy)ethoxy)-4-oxo-3,4-dihydropyrido[2,3-d]pyrimidin-2-yl)-2-(3,5-difluorophenyl)ethyl)-2-((3bS,4aR)-3-(difluoromethyl)-5,5-difluoro-3b,4,4a,5-tetrahydro-1H-cyclopropa[3,4]cyclopenta[1,2-c]pyrazol-1-yl)acetamide], the EC50 with recombinant NL4-3 virus worked out at 0.033 nM. In data set [1], this compound displayed a CC50 at 4 day of over 100 nM.

As for `Cn1nc(NS(C)(=O)=O)c2c(Cl)ccc(-n3c([C@H](Cc4cc(F)cc(F)c4)NC(=O)Cn4nc(C(F)F)c5c4C(F)(F)[C@@H]4C[C@H]54)nc4nc(OCC5CC(F)(F)C5)ccc4c3=O)c21` (atropisomer, axis not shown; (P)) [Example 31, N-((S)-1-((3P)-3-(4-chloro-1-methyl-3-(methylsulfonamido)-1H-indazol-7-yl)-7-((3,3-difluorocyclobutyl)methoxy)-4-oxo-3,4-dihydropyrido[2,3-d]pyrimidin-2-yl)-2-(3,5-difluorophenyl)ethyl)-2-((3bS,4aR)-3-(difluoromethyl)-5,5-difluoro-3b,4,4a,5-tetrahydro-1H-cyclopropa[3,4]cyclopenta[1,2-c]pyrazol-1-yl)acetamide], the EC50 with recombinant NL4-3 virus turned out to be 0.035 nM. The compound also returned a CC50 at 4 day in data set [1] of over 100 nM.

With `Cn1nc(NS(C)(=O)=O)c2c(Cl)ccc(-n3c([C@H](Cc4cc(F)cc(F)c4)NC(=O)Cn4nc(C(F)F)c5c4C(F)(F)[C@@H]4C[C@H]54)nc4nc(OCC(F)(F)C(F)(F)C(F)(F)F)ccc4c3=O)c21` (atropisomer, axis not shown; (P)) [Example 39, N-((S)-1-((3P,3P)-3-(4-chloro-1-methyl-3-(methylsulfonamido)-1H-indazol-7-yl)-7-(2,2,3,3,4,4,4-heptafluorobutoxy)-4-oxo-3,4-dihydropyrido[2,3-d]pyrimidin-2-yl)-2-(3,5-difluorophenyl)ethyl)-2-((3bS,4aR)-3-(difluoromethyl)-5,5-difluoro-3b,4,4a,5-tetrahydro-1H-cyclopropa[3,4]cyclopenta[1,2-c]pyrazol-1-yl)acetamide], the EC50 in the data set with recombinant NL4-3 virus turned out to be 0.122 nM. In data set [1], this compound returned a 50% cytotoxic concentration (CC50) at 4 day of over 100 nM.

Take `Cn1nc(COc2ccc3c(=O)n(-c4ccc(Cl)c5c(NS(C)(=O)=O)nn(C)c45)c([C@H](Cc4cc(F)cc(F)c4)NC(=O)Cn4nc(C(F)F)c5c4C(F)(F)[C@@H]4C[C@H]54)nc3n2)cc1C(F)(F)F` (atropisomer, axis not shown; (P)) [Example 13, N-((S)-1-((3P)-3-(4-chloro-1-methyl-3-(methylsulfonamido)-1H-indazol-7-yl)-7-((1-methyl-5-(trifluoromethyl)-1H-pyrazol-3-yl)methoxy)-4-oxo-3,4-dihydropyrido[2,3-d]pyrimidin-2-yl)-2-(3,5-difluorophenyl)ethyl)-2-((3bS,4aR)-3-(difluoromethyl)-5,5-difluoro-3b,4,4a,5-tetrahydro-1H-cyclopropa[3,4]cyclopenta[1,2-c]pyrazol-1-yl)acetamide]: the EC50 in the data set on recombinant NL4-3 virus was 0.058 nM. Further, in data set [1], the CC50 at 4 day was over 100 nM.

In the case of `Cc1cc(C)nc(COc2ccc3c(=O)n(-c4ccc(Cl)c5c(NS(C)(=O)=O)nn(C)c45)c([C@H](Cc4cc(F)cc(F)c4)NC(=O)Cn4nc(C(F)F)c5c4C(F)(F)[C@@H]4C[C@H]54)nc3n2)n1` (atropisomer, axis not shown; (P)) [Example 6, N-((S)-1-((3P,3P)-3-(4-chloro-1-methyl-3-(methylsulfonamido)-1H-indazol-7-yl)-7-((4,6-dimethylpyrimidin-2-yl)methoxy)-4-oxo-3,4-dihydropyrido[2,3-d]pyrimidin-2-yl)-2-(3,5-difluorophenyl)ethyl)-2-((3bS,4aR)-3-(difluoromethyl)-5,5-difluoro-3b,4,4a,5-tetrahydro-1H-cyclopropa[3,4]cyclopenta[1,2-c]pyrazol-1-yl)acetamide], the EC50 in the data set on recombinant NL4-3 virus was determined as 0.036 nM. In data set [1], this compound had a CC50 at 4 day of over 500 nM.

On to `CN(CCOc1ccc2c(=O)n(-c3ccc(Cl)c4c(NS(C)(=O)=O)nn(C)c34)c([C@H](Cc3cc(F)cc(F)c3)NC(=O)Cn3nc(C(F)F)c4c3C(F)(F)[C@@H]3C[C@H]43)nc2n1)S(C)(=O)=O` (atropisomer, axis not shown; (P)) [Example 10, N-((S)-1-((3P)-3-(4-chloro-1-methyl-3-(methylsulfonamido)-1H-indazol-7-yl)-7-(2-(N-methylmethylsulfonamido)ethoxy)-4-oxo-3,4-dihydropyrido[2,3-d]pyrimidin-2-yl)-2-(3,5-difluorophenyl)ethyl)-2-((3bS,4aR)-3-(difluoromethyl)-5,5-difluoro-3b,4,4a,5-tetrahydro-1H-cyclopropa[3,4]cyclopenta[1,2-c]pyrazol-1-yl)acetamide], for which the EC50 in the data set on recombinant NL4-3 virus amounted to 0.041 nM. In data set [1], this compound registered a CC50 at 4 day of over 500 nM.

On to `Cn1nc(NS(C)(=O)=O)c2c(Cl)ccc(-n3c([C@H](Cc4cc(F)cc(F)c4)NC(=O)Cn4nc(C5CC5)c5c4C(F)(F)[C@@H]4C[C@H]54)nc4nc(OCC(F)(F)C(F)(F)F)ccc4c3=O)c21` (atropisomer, axis not shown; (P)) [Example 41, N-((S)-1-((3P, 3P)-3-(4-chloro-1-methyl-3-(methylsulfonamido)-1H-indazol-7-yl)-4-oxo-7-(2,2,3,3,3-pentafluoropropoxy)-3,4-dihydropyrido[2,3-d]pyrimidin-2-yl)-2-(3,5-difluorophenyl)ethyl)-2-((3bS,4aR)-3-cyclopropyl-5,5-difluoro-3b,4,4a,5-tetrahydro-1H-cyclopropa[3,4]cyclopenta[1,2-c]pyrazol-1-yl)acetamide], for which, in the data set on recombinant NL4-3 virus, the EC50 was 0.043 nM. The same compound registered a CC50 at 4 day in data set [1] of over 100 nM.

As to `Cn1nc(NS(C)(=O)=O)c2c(Cl)ccc(-n3c([C@H](Cc4cc(F)cc(F)c4)NC(=O)Cn4nc(C(F)F)c5c4C(F)(F)[C@@H]4C[C@H]54)nc4nc(OCCC(F)(F)C(F)(F)F)ccc4c3=O)c21` (atropisomer, axis not shown; (P)) [Example 19, N-((S)-1-((3P)-3-(4-chloro-1-methyl-3-(methylsulfonamido)-1H-indazol-7-yl)-4-oxo-7-(3,3,4,4,4-pentafluorobutoxy)-3,4-dihydropyrido[2,3-d]pyrimidin-2-yl)-2-(3,5-difluorophenyl)ethyl)-2-((3bS,4aR)-3-(difluoromethyl)-5,5-difluoro-3b,4,4a,5-tetrahydro-1H-cyclopropa[3,4]cyclopenta[1,2-c]pyrazol-1-yl)acetamide], in the data set with recombinant NL4-3 virus, the EC50 came out at 0.044 nM. The CC50 at 4 day in data set [1] was over 100 nM.
